Common to all, as to type: cell-based
The target in test [1] is protein kinases (human kinome) (Homo sapiens, UniProt Q13164). To be noted: MAPK7 (Q13164-1).
The target of test [2] is protein kinases (human kinome) (Homo sapiens, UniProt Q9Y4K4). Conditions: MAP4K5 (Q9Y4K4), experiment wp168.
The target in test [3] is protein kinases (human kinome) (Homo sapiens, UniProt Q9NYL2). Conditions: MAP3K20 Q9NYL2; experiment wp168.
The target in test [4] is protein kinases (human kinome) (Homo sapiens, UniProt P53350). To be noted: PLK1 P53350, experiment wp133.
protein kinases (human kinome) (Homo sapiens, UniProt P53350), sequence (P53350 whole entry): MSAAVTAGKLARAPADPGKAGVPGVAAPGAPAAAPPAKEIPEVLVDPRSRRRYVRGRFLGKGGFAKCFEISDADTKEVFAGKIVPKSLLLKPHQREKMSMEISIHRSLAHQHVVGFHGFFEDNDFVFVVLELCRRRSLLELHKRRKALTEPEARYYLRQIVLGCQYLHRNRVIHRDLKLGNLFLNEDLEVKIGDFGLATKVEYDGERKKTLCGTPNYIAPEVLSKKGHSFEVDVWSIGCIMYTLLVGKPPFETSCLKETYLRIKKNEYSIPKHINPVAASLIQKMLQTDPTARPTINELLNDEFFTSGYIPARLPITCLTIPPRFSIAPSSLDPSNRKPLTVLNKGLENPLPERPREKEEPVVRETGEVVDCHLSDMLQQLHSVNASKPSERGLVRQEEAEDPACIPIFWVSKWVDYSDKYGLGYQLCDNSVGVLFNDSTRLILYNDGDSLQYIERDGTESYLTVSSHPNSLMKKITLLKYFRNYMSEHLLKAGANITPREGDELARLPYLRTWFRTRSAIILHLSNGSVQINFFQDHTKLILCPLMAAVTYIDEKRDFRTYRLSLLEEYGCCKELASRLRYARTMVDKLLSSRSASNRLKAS

Like-named read-outs stand apart in the source and are kept apart here.

protein kinases (human kinome) (Homo sapiens, UniProt Q13164), sequence (Q13164 whole entry): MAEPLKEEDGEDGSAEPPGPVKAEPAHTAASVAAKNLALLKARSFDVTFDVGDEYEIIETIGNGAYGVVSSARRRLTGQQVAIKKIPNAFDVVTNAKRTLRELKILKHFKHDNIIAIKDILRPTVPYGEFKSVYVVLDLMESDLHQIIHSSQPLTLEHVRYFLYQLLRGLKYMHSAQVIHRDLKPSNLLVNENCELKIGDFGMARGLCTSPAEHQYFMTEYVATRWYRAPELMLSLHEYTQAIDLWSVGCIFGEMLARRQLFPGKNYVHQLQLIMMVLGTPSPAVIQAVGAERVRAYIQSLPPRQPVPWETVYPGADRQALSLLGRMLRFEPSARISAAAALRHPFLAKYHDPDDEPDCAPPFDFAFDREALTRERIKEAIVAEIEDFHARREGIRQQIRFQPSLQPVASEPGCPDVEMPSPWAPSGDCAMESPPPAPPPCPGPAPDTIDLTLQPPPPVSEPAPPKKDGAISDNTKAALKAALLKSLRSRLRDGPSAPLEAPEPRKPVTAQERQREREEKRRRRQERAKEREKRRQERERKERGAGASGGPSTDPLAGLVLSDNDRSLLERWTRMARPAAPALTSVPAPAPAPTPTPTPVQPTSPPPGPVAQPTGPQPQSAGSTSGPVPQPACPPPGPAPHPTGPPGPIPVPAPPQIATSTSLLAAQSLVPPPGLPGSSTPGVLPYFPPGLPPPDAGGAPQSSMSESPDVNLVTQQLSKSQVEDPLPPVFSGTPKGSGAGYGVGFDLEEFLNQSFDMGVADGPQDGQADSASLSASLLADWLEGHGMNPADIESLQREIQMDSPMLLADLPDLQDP
protein kinases (human kinome) (Homo sapiens, UniProt Q9NYL2), sequence (Q9NYL2 whole entry): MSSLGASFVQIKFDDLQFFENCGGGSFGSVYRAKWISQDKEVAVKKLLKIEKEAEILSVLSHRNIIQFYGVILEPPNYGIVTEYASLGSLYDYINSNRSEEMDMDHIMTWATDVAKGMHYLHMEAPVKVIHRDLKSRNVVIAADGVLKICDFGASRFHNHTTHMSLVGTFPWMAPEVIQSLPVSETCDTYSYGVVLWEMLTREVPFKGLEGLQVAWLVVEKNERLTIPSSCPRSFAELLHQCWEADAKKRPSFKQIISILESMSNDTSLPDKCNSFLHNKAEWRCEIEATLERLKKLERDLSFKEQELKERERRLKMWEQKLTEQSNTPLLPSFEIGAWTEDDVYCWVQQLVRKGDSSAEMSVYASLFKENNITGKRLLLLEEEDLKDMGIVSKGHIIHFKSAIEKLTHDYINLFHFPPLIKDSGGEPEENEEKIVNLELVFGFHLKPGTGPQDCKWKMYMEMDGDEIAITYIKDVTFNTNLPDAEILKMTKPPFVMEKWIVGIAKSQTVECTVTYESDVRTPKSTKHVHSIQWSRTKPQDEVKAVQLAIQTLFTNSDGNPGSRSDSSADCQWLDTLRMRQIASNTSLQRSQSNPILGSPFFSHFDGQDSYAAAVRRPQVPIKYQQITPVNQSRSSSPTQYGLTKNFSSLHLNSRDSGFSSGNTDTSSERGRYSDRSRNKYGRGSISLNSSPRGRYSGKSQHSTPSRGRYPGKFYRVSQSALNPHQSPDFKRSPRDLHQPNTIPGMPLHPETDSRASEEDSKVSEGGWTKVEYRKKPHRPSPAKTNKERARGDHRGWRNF
protein kinases (human kinome) (Homo sapiens, UniProt Q9Y4K4), sequence (Q9Y4K4 whole entry): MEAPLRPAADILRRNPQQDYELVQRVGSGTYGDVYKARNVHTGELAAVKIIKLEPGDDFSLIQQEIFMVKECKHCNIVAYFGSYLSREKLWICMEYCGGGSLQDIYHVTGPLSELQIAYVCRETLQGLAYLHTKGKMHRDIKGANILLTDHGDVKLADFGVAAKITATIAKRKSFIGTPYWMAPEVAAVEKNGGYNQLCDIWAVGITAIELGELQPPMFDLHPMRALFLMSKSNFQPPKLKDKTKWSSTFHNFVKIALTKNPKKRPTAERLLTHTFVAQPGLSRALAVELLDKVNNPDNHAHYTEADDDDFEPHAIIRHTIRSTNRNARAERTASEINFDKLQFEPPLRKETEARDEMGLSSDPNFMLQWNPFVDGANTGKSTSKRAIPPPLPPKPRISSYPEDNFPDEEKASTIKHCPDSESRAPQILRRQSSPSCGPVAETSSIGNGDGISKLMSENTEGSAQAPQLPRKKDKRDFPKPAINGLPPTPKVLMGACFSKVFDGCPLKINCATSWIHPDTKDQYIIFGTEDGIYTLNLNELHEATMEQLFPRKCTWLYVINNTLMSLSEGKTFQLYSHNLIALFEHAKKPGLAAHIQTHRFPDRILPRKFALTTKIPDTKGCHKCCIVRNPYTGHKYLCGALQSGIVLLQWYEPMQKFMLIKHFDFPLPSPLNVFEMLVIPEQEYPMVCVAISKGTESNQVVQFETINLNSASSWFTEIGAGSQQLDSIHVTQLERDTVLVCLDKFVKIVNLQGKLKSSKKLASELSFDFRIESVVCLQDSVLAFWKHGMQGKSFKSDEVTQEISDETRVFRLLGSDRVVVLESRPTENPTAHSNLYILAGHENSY

For the compound `Cc1ccc(NC(=O)c2cccc(C(F)(F)F)c2)cc1N1Cc2cnc(Nc3ccc(N4CCN(CCCCC(=O)N[C@H](C(=O)N5C[C@H](O)C[C@H]5C(=O)N[C@@H](C)c5ccc(-c6scnc6C)cc5)C(C)(C)C)CC4)nc3)nc2N(C)C1=O` [DB1113], the logFC was −0.766 in test [1] (experiment wp168); −0.766 in test [1] (experiment wp168, direction down); −1.754 in test [2]; −1.754 in test [2] (direction down). The “logFC MAP3K20” value in test [3] is listed as −1.38.
For the compound `CC(C)S(=O)(=O)c1ccccc1Nc1nc(Nc2ccc(N3CCN(CCOCCNC(=O)CNc4cccc5c4C(=O)N(C4CCC(=O)NC4=O)C5=O)CC3)cc2)ncc1Cl` (stereo not shown) [SK.3.91], the logFC in test [1] (experiment wp016, 1 uM) is given as −0.3924; in test [1] (experiment wp016, 1 uM, direction down), −0.3924; in test [4] (1 hr), −0.5591; in test [4] (2 hr), −0.5804; in test [4] (4 hr) it was −0.7482. The “logFC PLK1” value in test [4] (1 hr) is on record as −0.5591; in test [4] (2 hr) it was −0.5804; in test [4] (4 hr), −0.7482.

For the origin of these results see US20240269139A1, “COMPOUNDS FOR TARGETED PROTEIN DEGRADATION OF KINASES” (DANA-FARBER CANCER INSTITUTE, INC., priority 2020, published 2024).
